{"source": "patent US10632106B2", "about": "“Methods of cancer treatment with 2-(1′H-Indole-3′-carbonyl)-thiazole-4-carboxylic acid methyl ester” (Ariagen, Inc., priority 2009, dated 2020)", "tested_on": "human breast cancer cell line MCF-7 xenografts", "experiment": "MCF-7 xenograft growth inhibition in nude mice", "assay_type": "in vivo", "conditions": "20 mg/kg i.p. once daily", "protocol": "All the procedures related to animal handling, care, and the treatment in the study were performed following guidelines approved by an Institutional Animal Care and Use Committee (IACUC) of Crown Bioscience, Inc. (Santa Clara, Calif., USA, a contract research organization we hired) based on the guidance of the Association for Assessment and Accreditation of Laboratory Animal Care (AAALAC). Animals were checked for any effects of tumor growth and drug treatment on normal behavior such as mobility, food and water consumption, body weight gain/loss (gross body weights were measured twice weekly), eye/hair matting, and any other abnormal effect. Death and observed clinical signs were recorded on the basis of the number of animals within each group. Individual animals with a tumor volume exceeding 3,000 mm^3 or animals of a group with a mean tumor volume exceeding 2,000 mm^3 were euthanized. […]\nTumor volume was measured twice weekly in two dimensions using a caliper and the volume was calculated with a formula of: V=0.5 a×b^2, where a and b are the long and short diameter (in mm) of a tumor, respectively. […] The TGD was calculated as: TGD=T−C, where T was the time (in days) required for tumors in a drug treated group to reach a predetermined mean tumor volume and C the time (in days) in the control group to reach the same volume. […]"}
{"smiles": "COC(=O)c1csc(C(=O)c2c[nH]c3ccccc23)n1", "note": "[ITE, 2-(1′H-indole-3′-carbonyl)-thiazole-4-carboxylic acid methyl ester]", "values": [{"measurement": "TGD (Tumor Growth Delay)", "setting": "at a tumor volume of 500 mm^3", "result": 3, "unit": "days"}, {"measurement": "TGI (Tumor Growth Inhibition)", "setting": "day 19, TGI=ΔT/ΔC×100%", "result": 71, "unit": "%"}]}
